According to publication PMC8854621, “Functionally selective signaling and broad metabolic benefits by novel insulin receptor partial agonists” (Nature Communications, 2022):
Values joined by “and” are separate entries in the source; they are usually repeats but may differ in a detail not shown here. Equal entries are not always repeated. Where two headings read alike, the source gives them in different places.

What was measured:
[1] = tested on: AAV-LIRKO and WT mice; test: Glucose lowering in AAV-LIRKO versus WT mice; format: in vivo, mouse; settings: glucose lowering efficacy; RHI 30, Levemir 24, IRPA-5 120, IRPA-6 60 nmol/kg
Procedure: Male C57BL/6 mice and Sprague-Dawley rats were obtained from Taconic Farms (Germantown, NY, USA). AAV-LIRKO mice were developed by AAV-Cre injection into conditional IR KO mice (B6.129S4(FVB)-Insr^tm1Khn/J from Jackson Laboratory; Fig. S3). To generate streptozotocin (STZ)-induced diabetic mouse, male C57BL/6 mice were treated with a single intraperitoneal (i.p.; 100 mg/kg) injection of STZ (Sigma Chemical, St. Louis, MO, USA).
6. Mouse models and related studies
LIRKO mouse model generation
Jackson Laboratory, #6955). Male mice at 8 weeks of age maintained on chow diet (Teklad 7002) were administered AAV-cre via tail vein injection as doses indicated on Fig. S4. Mice were studied 4 weeks following AAV injection for ITT or put on HFD (Research Diets, D12492) for 4 weeks before glucose lowering studies were executed.
IRPA studies in HFD-STZ mice
HFD-STZ mice were developed as previously described 40 and were groups based on their glucose ranges. Acute glucose lowering efficacy of IRPAs in healthy and HFD -STZ mice were evaluated upon administration of escalating doses of test molecules, which was expressed as area over the curve (AOC) relative to vehicle.
Intact, male Beagle dogs (2-8 years old) were either purchased from Marshall Bioresources or acquired from other in-house programs. […]

[2] = tested on: SAOS2/B10 cells; test: Cellular proliferation, EdU incorporation (Click-it EdU); format: cell-based
Description: 3. […]
Ethynyl-2′-deoxyuridine; ThermoFisher Scientific) assay. […]

[3] = tested on: differentiated mouse 3T3 L1 adipocytes; test: [14C]-2-deoxyglucose uptake in differentiated mouse 3T3 L1 adipocytes; format: cell-based; settings: four-parameter fit; read-out: 2DG uptake in 3T3 L1 adipocytes EC50
Procedure: and phosphatase inhibitors for 30 minutes. The lysates were applied to the modified MSD Elisa assays to measure phosphorylation of different tyrosine residues on insulin receptor. Briefly, lysates were added to custom MSD IR plates (MSD cat# N45CA-1). Phosphorylation of tyrosine on IR were measured using antibody against pY960 (rabbit mAb, Cell Applications #CB4378) or pY1345 (rabbit mAb 14A4, Cell Signaling #3026), respectively in combination with SULFO-tag anti rabbit antibody (MSD cat# R32AB). For pY1150, cell lysate was added to MSD high binding plate […]
Signaling #3024). The bound insulin receptor was detected using combination of rabbit anti-insulin receptor b (C-19, Santa Cruz sc-711) and SULFO-tag anti rabbit antibody.
3. IGF-1R binding, cellular proliferation in SaoS2 cells and 2-deoxyglucose (2DG) update in mouse
IGF-1R affinity of IRPAs was assessed in a whole cell binding assay using a cell line stably expressing […]
activities of IRPAs as measured by EdU incorporation to SAOS2/B10 cells using the Click-it EdU (5-Ethynyl-2′-deoxyuridine; ThermoFisher Scientific) assay. To assess IRPA function downstream of the signaling cascade, [14C]-2-deoxyglucose cellular uptake in the differentiated mouse 3T3 L1 adipocytes was measured using standard protocol (3). […]
measured (S4a). Mouse white adipose tissue pAkt levels (S4b) were quantified in the same manner as other tissues […]

[4] = tested on: ApoE KO mice; test: Body weight in ApoE KO mice, 8 weeks s.c. pump; format: in vivo, mouse; settings: Fig. 6e; one value per animal
Procedure: (§1) Fig. 6 Beneficial IRPA effects beyond glycemic control. Glucose, body weight and hepatic triglyceride (TG) lowering by IRPA alone or in combination with a GLP-1 analog in mouse studies (a–d). Glucose lowering acutely (a) or during chronic QD dosing (b; 2-h post dose on day 11) in diabetic mice. Body weight (c) and liver triglyceride (d) changes at the end of 14-day QD dosing. […] Data is presented as mean ± SD. N = 8. p value is calculated using one-way ANOVA with Tukey’s multiple comparisons test: b1 < 0.001 vs. vehicle, b2 < 0.001 and b3 = 0.002 for indicated comparisons; c1 = 0.008 and c2 = 0.0001 vs. vehicle, c3 < 0.0001 for indicated comparisons; d1 < 0.001 vs. vehicle. IRPA reduces aortic plaque in ApoE KO mice (e–h). There was no significant body weight or cholesterol change from baseline by RHI or IRPA-3 (e, g). […] Data is presented as mean ± SD. p value is calculated using one-way ANOVA with Tukey’s multiple comparisons test: f1 = 0.0034 and f2 = 0.035 vs. vehicle; h1 = 0.046 vs. vehicle. […] Source data are provided as a Source Data file. […]

[5] = tested on: ApoE KO mice; test: Aortic plaque in ApoE KO mice (Sudan IV staining, en face aorta); format: in vivo, mouse; settings: Fig. 6h; one value per animal
Procedure: as §1

Which “AUC reduction in AAV-LIRKO mice compared to WT mice” value [1] does the source give for “RHI: recombinant human insulin, purchased from commercial sources” here?
Its value is 30%.

And the EC50 ([2]; geometric mean of all independent titrations, EdU incorporation, four-parameter fit, read-out: Cell Proliferation Assay Total Ave EC50)?
Its EC50 is 6.53 nM.

What about the EC50 ([2]; titration 1, read-out: Cell Proliferation Assay EC50-1) of the same substance?
Its EC50 is 12.9 nM.

What about the EC50 ([2]; titration 2, read-out: Cell Proliferation Assay EC50-2) of the same substance?
The EC50 was 3.1 nM.

And the EC50 ([2]; titration 3, read-out: Cell Proliferation Assay EC50-3)?
The EC50 was 9.5 nM.

What about the EC50 ([2]; titration 4, read-out: Cell Proliferation Assay EC50-4) of the same substance?
Its EC50 is 9.5 nM.

What about the EC50 ([2]; titration 5, read-out: Cell Proliferation Assay EC50-5) of the same substance?
Its EC50 is 3.3 nM.

And the EC50 [3]?
The EC50 was 6.6 nM.

What about the “Body ewight change (%) from pretreatment” value [4] of the same substance?
The value was 13.2% and 5.48% and 7.48% and 4.52% and 8.31% and 18.95% and 5.38% and -7.57% and 17.6% and 5.39% and 19.87% and 3% and 15.56%.

What about the “Aortic plaque area (% to total surface)” value [5] of the same substance?
The value was 33.7% and 21.2% and 20.3% and 22.7% and 23.8% and 26.1% and 21.1% and 26.6% and 22.5% and 26.7% and 29.0% and 23.3%.
